Experimental data taken from patent publication US20240190847A1, “INDOLINE DERIVATIVES AS DDR1 AND DDR2 INHIBITORS” (CHIESI FARMACEUTICI S.P.A., priority 2021, published 2024).
Where two headings read alike, the source gives them in different places.

Tests used:
DDR2 = DDR2 LanthaScreen Europium Kinase Binding assay
Description: (§1) DDR1 and DDR2 binding assays were performed using Life Technologies LanthaScreen™ Europium Kinase Binding assay. The compounds were incubated with 5 nM DDR1 (Carna Biosciences) or 5 nM DDR2 (Life Technologies) for 1 hour at room temperature in white 384-well OptiPlate (PerkinElmer), containing 20 nM or 10 nM Kinase Tracer 178 respectively and 2 nM Europium labelled anti-GST antibody (Life Technologies) in assay buffer (50 mM HEPES pH 7.5, 10 mM MgCl2, 1 mM EGTA and 0.01% BRIJ35). The ratio of fluorescence emission 665 nm/615 nm after excitation at 340 nm was obtained using the Tecan Spark 20M plate reader. IC50 values were determined in GraphPad Prism 8.0 software, using 4 parameter model: log(inhibitor) vs. response. IC50 values were converted in Ki using the Cheng-Prusoff equation (Ki=IC50/(1+[Tracer]/Kd).

DDR1 = DDR1 LanthaScreen Europium Kinase Binding assay
Description: as §1

DDR1 receptor = assay: DDR1 cell based assay (PathHunter U2OS DDR1); settings: U2OS-DDR1 cells, bovine Type II Collagen 20 μg/ml stimulation
Description: The inhibition of DDR1 receptor activation by compounds was evaluated by PathHunter® U2OS DDR1 assay (Eurofins DiscoverX), according to the manufacturer's instructions. Briefly, U2O5-DDR1 cells were seeded in white 384-well plates at a density of 5000 cells/well and incubated for 2 hours at 37° C. and 5% CO2. Cells were then treated with compounds at different concentrations and incubated for 30 minutes, before stimulation with bovine Type II Collagen 20 μg/ml and incubation overnight at 37° C. and 5% CO2. PathHunter Detection Reagents were prepared according to the protocol provided by DiscoverX and 20 μl/well of this mix were added to each well. After incubating the plates for 1 hour at room temperature in the dark, luminescence signal was acquired with a plate reader. Raw data were normalized to vehicle control (0% for normalization) and positive control (100% for normalization; cells treated with 20 μg/ml collagen II) and IC50 parameters were calculated in GraphPad Prism 8.0 software, using sigmoidal dose-response curve fitting with variable slope.

[1] = 5 nM DDR2, 1 hour at room temperature, Ki from IC50 by Cheng-Prusoff, read-out: Ki DDR2
[2] = 5 nM DDR1, 1 hour at room temperature, Ki from IC50 by Cheng-Prusoff, read-out: Ki DDR1

Compound	Ki (DDR2; [1])	Ki (DDR1; [2])	IC50 (DDR1 receptor)	Ki (DDR2; read-out: DDR2 Ki)	Ki (DDR1; read-out: DDR1 Ki)
Cc1cn(-c2cc(NC(=O)c3ccc4c(c3)N(Cc3cncnc3)CC4)cc(C(F)(F)F)c2)cn1 [Example 1, N-(3-(4-methyl-1H-imidazol-1-yl)-5-(trifluoromethyl)phenyl)-1-(pyrimidin-5-ylmethyl)indoline-6-carboxamide]	< 0.025 µM	< 0.025 µM	0.05 to 0.08 µM		
CNC(=O)c1cc(CN2CCc3ccc(C(=O)Nc4cc(-n5cnc(C)c5)cc(C(F)(F)F)c4)cc32)ccn1 [Example 2, N-(3-(4-methyl-1H-imidazol-1-yl)-5-(trifluoromethyl)phenyl)-1-((2-(methylcarbamoyl)pyridin-4-yl)methyl)indoline-6-carboxamide]	< 0.025 µM	< 0.025 µM	0.025 to 0.05 µM		
CN1CCN(Cc2cc(NC(=O)c3ccc4c(c3)N(Cc3cncnc3)CC4)cc(C(F)(F)F)c2)CC1 [Example 3, N-(3-((4-methylpiperazin-1-yl)methyl)-5-(trifluoromethyl)phenyl)-1-(pyrimidin-5-ylmethyl)indoline-6-carboxamide]	< 0.025 µM	< 0.025 µM	0.05 to 0.08 µM		
CNC(=O)c1cc(CN2CCc3ccc(NC(=O)c4cc(-n5cnc(C)c5)cc(C(F)(F)F)c4)cc32)ccn1 [Example 6, N-methyl-4-((6-(3-(4-methyl-1H-imidazol-1-yl)-5-(trifluoromethyl)benzamido)indolin-1-yl)methyl)picolinamide]	< 0.025 µM	< 0.025 µM	0.025 to 0.05 µM		
CN1CCN(c2cncc(CN3CCc4ccc(C(=O)Nc5cccc(C(F)(F)F)c5)cc43)c2)CC1=O [Example 7, 1-((5-(4-methyl-3-oxopiperazin-1-yl)pyridin-3-yl)methyl)-N-(3-(trifluoromethyl)phenyl)indoline-6-carboxamide]	< 0.025 µM	< 0.025 µM	< 0.025 µM		
CN1CCN(Cc2ccc(NC(=O)c3ccc4c(c3)N(Cc3cnc(N)nc3)CC4)cc2C(F)(F)F)CC1 [Example 8, 1-((2-aminopyrimidin-5-yl)methyl)-N-(4-((4-methylpiperazin-1-yl)methyl)-3-(trifluoromethyl)phenyl)indoline-6-carboxamide]	0.025 to 0.05 µM	< 0.025 µM	< 0.025 µM		
CN1CCN(Cc2ccc(NC(=O)c3ccc4c(c3)N(Cc3ccc(N)nc3)CC4)cc2C(F)(F)F)CC1 [Example 9, 1-((6-aminopyridin-3-yl)methyl)-N-(4-((4-methylpiperazin-1-yl)methyl)-3-(trifluoromethyl)phenyl)indoline-6-carboxamide]	0.025 to 0.05 µM	< 0.025 µM	< 0.025 µM		
CN1CCN(Cc2ccc(NC(=O)c3ccc4c(c3)N(Cc3cncnc3N)CC4)cc2C(F)(F)F)CC1 [Example 10, 1-((4-aminopyrimidin-5-yl)methyl)-N-(4-((4-methylpiperazin-1-yl)methyl)-3-(trifluoromethyl)phenyl)indoline-6-carboxamide]	< 0.025 µM	< 0.025 µM	< 0.025 µM		
CN1CCN(Cc2ccc(NC(=O)c3ccc4c(c3)N(Cc3cnc(N)cn3)CC4)cc2C(F)(F)F)CC1 [Example 11, 1-((5-aminopyrazin-2-yl)methyl)-N-(4-((4-methylpiperazin-1-yl)methyl)-3-(trifluoromethyl)phenyl)indoline-6-carboxamide]	< 0.025 µM	< 0.025 µM	< 0.025 µM		
CNc1ncc(CN2CCc3ccc(C(=O)Nc4ccc(CN5CCN(C)CC5)c(C(F)(F)F)c4)cc32)cn1 [Example 12, 1-((2-(methylamino)pyrimidin-5-yl)methyl)-N-(4-((4-methylpiperazin-1-yl)methyl)-3-(trifluoromethyl)phenyl)indoline-6-carboxamide]	0.025 to 0.05 µM	< 0.025 µM	< 0.025 µM		
CC(=O)Nc1ncc(CN2CCc3ccc(C(=O)Nc4ccc(CN5CCN(C)CC5)c(C(F)(F)F)c4)cc32)cn1 [Example 15, 1-((2-acetamidopyrimidin-5-yl)methyl)-N-(4-((4-methylpiperazin-1-yl)methyl)-3-(trifluoromethyl)phenyl)indoline-6-carboxamide]		< 0.025 µM	< 0.025 µM		
CN1CCN(Cc2ccc(NC(=O)c3ccc4c(c3)N(Cc3cncc(C(N)=O)c3)CC4)cc2C(F)(F)F)CC1 [Example 17, 1-((5-carbamoylpyridin-3-yl)methyl)-N-(4-((4-methylpiperazin-1-yl)methyl)-3-(trifluoromethyl)phenyl)indoline-6-carboxamide]	< 0.025 µM	< 0.025 µM	0.025 to 0.05 µM		
COCCn1cc(Nc2ncc(CN3CCc4ccc(C(=O)Nc5cc(CN6CCN(C)CC6)cc(C(F)(F)F)c5)cc43)cn2)cn1 [Example 19, 1-((2-((1-(2-methoxyethyl)-1H-pyrazol-4-yl)amino)pyrimidin-5-yl)methyl)-N-(3-((4-methylpiperazin-1-yl)methyl)-5-(trifluoromethyl)phenyl)indoline-6-carboxamide]	< 0.025 µM	< 0.025 µM	< 0.025 µM		
CN(C)CCn1cc(Nc2ncc(CN3CCc4ccc(C(=O)Nc5cc(CN6CCN(C)CC6)cc(C(F)(F)F)c5)cc43)cn2)cn1 [Example 20, 1-((2-((1-(2-(dimethylamino)ethyl)-1H-pyrazol-4-yl)amino)pyrimidin-5-yl)methyl)-N-(3-((4-methylpiperazin-1-yl)methyl)-5-(trifluoromethyl)phenyl)indoline-6-carboxamide]	< 0.025 µM	< 0.025 µM	0.05 to 0.08 µM		
CN1CCN(Cc2cc(C(=O)Nc3ccc4c(c3)N(Cc3cnc(N)nc3)CC4)cc(C(F)(F)F)c2)CC1 [Example 21, N-(1-((2-aminopyrimidin-5-yl)methyl)indolin-6-yl)-3-((4-methylpiperazin-1-yl)methyl)-5-(trifluoromethyl)benzamide]	< 0.025 µM	< 0.025 µM	0.05 to 0.08 µM		
CN1CCN(Cc2cc(NC(=O)c3ccc4c(c3)N(c3cncnc3)CC4)cc(C(F)(F)F)c2)CC1 [Example C1, N-(3-((4-methylpiperazin-1-yl)methyl)-5-(trifluoromethyl)phenyl)-1-(pyrimidin-5-yl)indoline-6-carboxamide, reference compound]				50 µM	30 µM
Cc1cn(-c2cc(NC(=O)c3ccc4c(c3)N(c3cncnc3)CC4)cc(C(F)(F)F)c2)cn1 [Example C2, N-(3-(4-methyl-1H-imidazol-1-yl)-5-(trifluoromethyl)phenyl)-1-(pyrimidin-5-yl)indoline-6-carboxamide, reference compound]				4 µM	58 µM
CN1CCN(Cc2cc(C(=O)Nc3ccc4c(c3)N(c3cncnc3)CC4)cc(C(F)(F)F)c2)CC1 [Example C3, 3-((4-methylpiperazin-1-yl)methyl)-N-(1-(pyrimidin-5-yl)indolin-6-yl)-5-(trifluoromethyl)benzamide, reference compound]				58 µM	58 µM
